Experimental data as given in patent US20110104055A1, “SUBSTITUTED N-ARYL BENZAMIDES AND RELATED COMPOUNDS FOR TREATMENT OF AMYLOID DISEASES AND SYNUCLEINOPATHIES” (priority 2002, published 2011).

Legend:
Type in all cases: biochemical
[1] = biological target: T1, Aβ 1-42 fibrils (Homo sapiens, UniProt P05067); assay: Congo red binding assay, Aβ 1-42 fibrils (Example 11); conditions: 3-day incubation
T1 construct: purchased Bachem Inc
Experimental: (§1) In the Congo red binding assay, the ability of a test compound to alter amyloid (in this case, Aβ) binding to Congo red is quantified. In this assay, Aβ 1-42 and test compounds were incubated for 3 days and then vacuum filtered through a 0.2 μm filter. The amount of Aβ 1-42 retained in the filter was then quantitated following staining of the filter with Congo red. After appropriate washing of the filter, any lowering of the Congo red color on the filter in the presence of the test compound (compared to the Congo red staining of the amyloid protein in the absence of the test compound) was indicative of the test compound's ability to diminish/alter the amount of aggregated and congophilic Aβ.
In one study, the ability of Aβ fibrils to bind Congo red in the absence or presence of increasing amounts of the compounds or EDTA (at Aβ:test compound weight ratios of 1:1, 1:0.1, 1:0.01 or 1:0.001) was determined.

[2] = biological target: T1, Aβ 1-42 fibrils; assay: Thioflavin T fluorometry, disruption of pre-formed Aβ 1-42 fibrils (Example 11); conditions: 30 μg pre-fibrillized Aβ 1-42, 37° C., 3 days
Source text: In one study, Thioflavin T fluorometry was used to determine the effects of the compounds, and of EDTA (as a negative control). In this assay Thioflavin T binds specifically to fibrillar amyloid, and this binding produces a fluorescence enhancement at 485 nm that is directly proportional to the amount of amyloid fibrils formed. The higher the fluorescence, the greater the amount of amyloid fibrils formed (Naki et al., Lab. Invest. 65:104-110, 1991; Levine III, Protein Sci. 2:404-410, 1993; Amyloid: Int. J. Exp. Clin. Invest. 2:1-6, 1995).
(§2) Following 3-days of co-incubation, 50 μl of each incubation mixture was transferred into a 96-well microtiter plate containing 150 μl of distilled water and 50 μl of a Thioflavin T solution (i.e. 500 mM Thioflavin T in 250 mM phosphate buffer, pH 6.8). The fluorescence was read at 485 nm (444 nm excitation wavelength) using an ELISA plate fluorometer after subtraction with buffer alone or compound alone, as blank.

[3] = biological target: T2, α-synuclein fibrils (Homo sapiens, UniProt P37840); assay: Congo red binding assay, α-synuclein fibrils (Example 12); conditions: 3-day incubation
T2 construct: purchased rPeptide
Experimental: as §1, with “of a given test compound” for “of a test compound”, “this case, α-synuclein) binding to” for “this case, Aβ) binding to”, “this assay, α-synuclein and test” for “this assay, Aβ 1-42 and test”, “amount of α-synuclein retained in” for “amount of Aβ 1-42 retained in”, “and congophilic α-synuclein.” for “and congophilic Aβ.”
In one study, the ability of α-synuclein fibrils to bind Congo red in the absence or presence of increasing amounts of compounds DC-0051-F1, F2, F3, F4, F5, F6 and EDTA (at α-synuclein:test compound weight ratios of 1:1, 1:0.1, 1:0.01 or 1:0.001) was determined.

[4] = biological target: T2, α-synuclein fibrils; assay: Thioflavin T fluorometry, disruption of pre-formed α-synuclein fibrils (Example 12); conditions: 3 days; for % Inhibition α-synuclein (result ± S.D.), Thioflavin T fluorometry: 30 μg pre-fibrillized α-synuclein, 37° C.
Experimental: In this assay, Thioflavin T binds specifically to α-synuclein fibrils, and this binding produces a fluorescence enhancement at 485 nm that is directly proportional to the amount of α-synuclein fibrils present. The higher the fluorescence, the greater the amount of α-synuclein fibrils present (Naki et al, Lab. Invest. 65:104-110, 1991; Levine III, Protein Sci. 2:404-410, 1993; Amyloid: Int. J. Exp. Clin. Invest. 2:1-6, 1995).
as §2, with “In this study, 30 μg of pre-fibrillized α-synuclein (rPeptide) was incubated at 37° C. for 3 days either alone or in the presence of compounds DC-0051-F1, F2, F3, F4, F5, F6 or EDTA (at α-synuclein:test compound weight ratios of 1:1, 1:0.1, 1:0.01 or 1:0.001). Following” for “Following”

[5] = Aβ:test compound wt/wt ratio 1:0.001
[6] = Aβ:test compound wt/wt ratio 1:0.01
[7] = Aβ:test compound wt/wt ratio 1:0.1
[8] = Aβ:test compound wt/wt ratio 1:1
[9] = α-synuclein:test compound wt/wt ratio 1:0.001
[10] = α-synuclein:test compound wt/wt ratio 1:0.01
[11] = α-synuclein:test compound wt/wt ratio 1:0.1
[12] = α-synuclein:test compound wt/wt ratio 1:1

T1 sequence (P05067 672-713): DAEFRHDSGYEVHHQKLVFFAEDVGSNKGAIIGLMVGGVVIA

O=C(Nc1ccc(O)c(O)c1F)c1ccc(O)c(O)c1 [DC-0051-F6, N-(2-fluoro-3,4-dihydroxyphenyl)-3,4-dihydroxybenzamide]
% Inhibition Aβ (result ± S.D.), Congo red binding [1, 5]: 3.7 ± 3.24%
% Inhibition Aβ (result ± S.D.), Congo red binding [1, 6]: 6.8 ± 1.51%
% Inhibition Aβ (result ± S.D.), Congo red binding [1, 7]: 18.3 ± 5.32%
% Inhibition Aβ (result ± S.D.), Congo red binding [1, 8]: 68.0 ± 2.11%
% Inhibition Aβ (result ± S.D.), Thioflavin T fluorometry [2, 5]: 9.6 ± 0.96%
% Inhibition Aβ (result ± S.D.), Thioflavin T fluorometry [2, 6]: 36.8 ± 3.43%
% Inhibition Aβ (result ± S.D.), Thioflavin T fluorometry [2, 7]: 88.0 ± 1.09%
% Inhibition Aβ (result ± S.D.), Thioflavin T fluorometry [2, 8]: 99.4 ± 0.86%
% Inhibition α-synuclein (result ± S.D.), Congo red binding [3, 9]: 0.0 ± 4.20%
% Inhibition α-synuclein (result ± S.D.), Congo red binding [3, 10]: 1.4 ± 5.69%
% Inhibition α-synuclein (result ± S.D.), Congo red binding [3, 11]: 29.9 ± 2.41%
% Inhibition α-synuclein (result ± S.D.), Congo red binding [3, 12]: 59.8 ± 3.62%
disruption/disassembly of pre-formed α-synuclein fibrils, in words ([4]; Thioflavin T fluorometry, all concentrations tested): dose-dependent disruption/disassembly
% Inhibition α-synuclein (result ± S.D.), Thioflavin T fluorometry [4, 9]: 4.2 ± 5.02%
% Inhibition α-synuclein (result ± S.D.), Thioflavin T fluorometry [4, 10]: 56.2 ± 1.49%
% Inhibition α-synuclein (result ± S.D.), Thioflavin T fluorometry [4, 11]: 94.7 ± 0.68%
% Inhibition α-synuclein (result ± S.D.), Thioflavin T fluorometry [4, 12]: 100.0 ± 1.98%
